Values quoted from earlier work in patent US20250000937A1 (ZHAOKE (HONG KONG) OPHTHALMOLOGY PHARMACEUTICAL LTD., priority 2021, published 2025).

Legend:
[1] = tested on: DED; conditions: OPUS-1, mean baseline ICSS of 1.84
[2] = tested on: DED; conditions: in vivo
[3] = in vivo

## CS(=O)(=O)c1cccc(C[C@H](NC(=O)c2c(Cl)cc3c(c2Cl)CCN(C(=O)c2ccc4ccoc4c2)C3)C(=O)O)c1 [Lifitegrast]
[1]
  Proportion of patients with at least a 1-point improvement in ICSS from baseline to day 84: 22.2%
[2]
  Time to show efficacy against DED signs and symptoms: 3 months
[3]
  Patients with instillation site pain: 22%
